From US6632829B2, “Sulfonamides and derivatives thereof that modulate the activity of endothelin” (Texas Biotechnology Corp., priority 1996, dated 2003)
Where “and” joins values, the source holds several entries; their conditions need not be identical. Equal entries are not always repeated.

Legend:
[1] = molecular target: T1, human ETB receptor (Homo sapiens, UniProt P24530); assay: Endothelin binding inhibition, Binding Test #2: competition with 125I-ET-1 for ETB receptors on transfected COS7 cell membranes
T1 construct: expressed in transfected cells; host or cells: COS7 cells
T1 sequence (P24530 27-442): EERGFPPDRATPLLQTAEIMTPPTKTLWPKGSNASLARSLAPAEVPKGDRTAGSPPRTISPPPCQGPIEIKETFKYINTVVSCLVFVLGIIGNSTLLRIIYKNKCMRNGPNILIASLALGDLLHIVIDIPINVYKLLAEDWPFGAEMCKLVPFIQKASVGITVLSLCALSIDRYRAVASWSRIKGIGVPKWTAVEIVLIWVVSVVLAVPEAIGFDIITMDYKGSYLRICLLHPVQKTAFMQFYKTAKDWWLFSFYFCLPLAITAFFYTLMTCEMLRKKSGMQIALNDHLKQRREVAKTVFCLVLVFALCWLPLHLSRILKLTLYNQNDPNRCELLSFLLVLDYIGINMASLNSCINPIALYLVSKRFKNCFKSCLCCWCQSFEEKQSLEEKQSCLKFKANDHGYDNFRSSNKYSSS
Procedure, shortened: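 Membranes from COS7 cells transfected with human ETB receptor, prepared in HEPES pH 7.4 with aprotinin, MnCl2/DNase treatment at 37° C for 30 min. Test compounds compete with 125I-labeled ET-1 for receptor binding; membrane used at 1 μg/50 μL binding buffer.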

[2] = molecular target: T2, human ETA receptors (Homo sapiens, UniProt P25101); assay: Endothelin binding inhibition, Binding Test #1: competition with 125I-ET-1 for ETA receptors on TE 671 cell membranes
T2 construct: endogenous in cells; host or cells: TE 671 cells (ATCC HTB 139), membrane preparation
T2 sequence (P25101 21-427): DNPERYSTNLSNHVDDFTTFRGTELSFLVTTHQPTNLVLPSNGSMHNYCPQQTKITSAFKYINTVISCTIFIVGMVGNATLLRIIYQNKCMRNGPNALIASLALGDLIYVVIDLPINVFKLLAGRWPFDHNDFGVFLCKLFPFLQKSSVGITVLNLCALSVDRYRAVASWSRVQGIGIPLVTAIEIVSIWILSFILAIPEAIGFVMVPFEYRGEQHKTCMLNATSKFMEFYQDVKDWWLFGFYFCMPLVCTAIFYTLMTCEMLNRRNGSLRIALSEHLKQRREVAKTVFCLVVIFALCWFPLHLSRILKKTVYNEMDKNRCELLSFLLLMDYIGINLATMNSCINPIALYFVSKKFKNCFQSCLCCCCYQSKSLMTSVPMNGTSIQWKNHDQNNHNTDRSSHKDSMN

[3] = incubation at 24° C. (values marked †)
[4] = incubation at 4° C. (values without †)

SMILES	IC50 [1, 3]	IC50 [2, 3]	IC50 [2, 4]	IC50 [1, 4]
Cc1noc(NS(=O)(=O)c2sccc2-c2ccc(CC(C)C)cc2)c1Br [N-(4-bromo-3-methyl-5-isoxazolyl)-3-(4-iso-butylphenyl)thiophene-2-sulfonamide]	2.76 µM	0.0823 µM		
Cc1cc(CCC(C)C)ccc1-c1ccsc1S(=O)(=O)Nc1onc(C)c1Br [N-(4-bromo-3-methyl-5-isoxazolyl)-3-(4-iso-pentyl-2-methylphenyl)thiophene-2-sulfonamide]	2.4 µM	0.107 µM		
Cc1noc(NS(=O)(=O)c2sccc2-c2ccc(CCC(C)C)cc2)c1Br [N-(4-bromo-3-methyl-5-isoxazolyl)-3-(4-iso-pentylphenyl)thiophene-2-sulfonamide]	3.31 µM	0.155 µM		
Cc1noc(NS(=O)(=O)c2sccc2-c2ccc(C(C)C)cc2)c1Br [N-(4-bromo-3-methyl-5-isoxazolyl)-3-(4-iso-propylphenyl)thiophene-2-sulfonamide]	28.3 µM		0.218 µM	
Cc1ccc(/C=C/c2ccsc2S(=O)(=O)Nc2onc(C)c2Br)cc1 [N-(4-bromo-3-methyl-5-isoxazolyl)-3-(4-methyl-trans-styryl)thiophene-2-sulfonamide]	0.66 µM	0.94 µM		
Cc1ccc(CCc2ccsc2S(=O)(=O)Nc2onc(C)c2Br)cc1 [N-(4-bromo-3-methyl-5-isoxazolyl)-3-(4-methylphenethyl)thiophene-2-sulfonamide]	9.4 µM	0.347 µM		
CCCc1ccc(-c2ccsc2S(=O)(=O)Nc2onc(C)c2Br)cc1 [N-(4-bromo-3-methyl-5-isoxazolyl)-3-(4-propylphenyl)thiophene-2-sulfonamide]	8.48 µM		0.0873 µM	
Cc1noc(NS(=O)(=O)c2sccc2CC=Cc2cc3c(cc2CO)OCO3)c1Br [N-(4-bromo-3-methyl-5-isoxazolyl)-3-[2-(hydroxymethyl)-4,5-(methylenedioxy)cinnamyl]thiophene-2-sulfonamide]	3.24 µM	0.0795 µM		
Cc1cc2c(cc1C=CCc1ccsc1S(=O)(=O)Nc1onc(C)c1Br)OCO2 [N-(4-bromo-3-methyl-5-isoxazolyl)-3-[2-methyl-4,5-(methylenedioxy)cinnamyl]thiophene-2-sulfonamide]	~6 µM	~0.1 µM		
Cc1cc2c(cc1CCc1ccsc1S(=O)(=O)Nc1onc(C)c1Br)OCO2 [N-(4-bromo-3-methyl-5-isoxazolyl)-3-[2-methyl-4,5-(methylenedioxy)phenethyl]thiophene-2-sulfonamide]	~5 µM	~0.1 µM		
Cc1cc(C)c(OCc2ccsc2S(=O)(=O)Nc2onc(C)c2Br)c(C)c1 [N-(4-bromo-3-methyl-5-isoxazolyl)-3-[(2,4,6-trimethylphenoxy)methyl]thiophene-2-sulfonamide]	4.68 µM	0.0457 µM		
Cc1ccc(OCc2ccsc2S(=O)(=O)Nc2onc(C)c2Br)c(C)c1 [N-(4-bromo-3-methyl-5-isoxazolyl)-3-[(2,4-dimethylphenoxy)methyl]thiophene-2-sulfonamide]	7.45 µM	0.346 µM		
Cc1noc(NS(=O)(=O)c2sccc2Cc2ccc3c(c2)OCO3)c1Br [N-(4-bromo-3-methyl-5-isoxazolyl)-3-[(3,4-methylenedioxy)benzyl]thiophene-2-sulfonamide]	3.2 µM	8.1 µM		
Cc1noc(NS(=O)(=O)c2sccc2-c2ccc3c(c2)OCO3)c1Br [N-(4-bromo-3-methyl-5-isoxazolyl)-3-[(3,4-methylenedioxy)phenyl]thiophene-2-sulfonamide]	79 µM	0.5 µM		
Cc1ccc(OCc2ccsc2S(=O)(=O)Nc2onc(C)c2Br)cc1 [N-(4-bromo-3-methyl-5-isoxazolyl)-3-[(4-methylphenoxy)methyl]thiophene-2-sulfonamide]	22.8 µM	1.64 µM		
Cc1noc(NS(=O)(=O)c2sccc2Cc2ccccc2)c1Br [N-(4-bromo-3-methyl-5-isoxazolyl)-3-benzylthiophene-2-sulfonamide]	39 µM	1.6 µM		

SMILES	IC50 [1, 3]	IC50 [2, 3]	IC50 [2, 4]	IC50 [1, 4]
Cc1noc(NS(=O)(=O)c2sccc2CC=Cc2cc3c(cc2COC2CCCCO2)OCO3)c1Br (centres unmarked) [N-(4-bromo-3-methyl-5-isoxazolyl)-3-{2-[(tetrahydro-4H-pyran-2-yloxy)methyl]-4,5-(methylenedioxy)cinnamyl}thiophene-2-sulfonamide]		0.0967 µM		4.14 µM
CCCc1cc2c(cc1OCc1ccsc1S(=O)(=O)Nc1onc(C)c1Br)OCO2 [N-(4-bromo-3-methyl-5-isoxazolyl)-3-{[2-propyl-4,5-(methylenedioxy)phenoxy]methyl}thiophene-2-sulfonamide]	~1.5 µM	~0.2 µM		
Cc1noc(NS(=O)(=O)c2csc(-c3ccccc3C=O)c2)c1Br [N-(4-bromo-3-methyl-5-isoxazolyl)-5-(2-formylphenyl)thiophene-3-sulfonamide]	1.28 ± 0.71 µM	12.3 µM	3.46 µM	0.529 µM
Cc1ccc(-c2ccc(S(=O)(=O)Nc3onc(C)c3Br)s2)s1 [N-(4-bromo-3-methyl-5-isoxazolyl)-5-(5-methyl-2-thienyl)thiophene-2-sulfonamide]	0.21 µM	17 µM		
Cc1noc(NS(=O)(=O)c2ccc(-c3cc4ccccc4s3)s2)c1Br [N-(4-bromo-3-methyl-5-isoxazolyl)-5-(benzo[b]thien-2-yl)thiophene-2-sulfonamide]	0.8 µM	16 µM		
COc1ccccc1Cc1sc2ccccc2c1S(=O)(=O)Nc1onc(C)c1Br [N-(4-bromo-3-methyl-5-isoxozolyl)-2-(2-methoxybenzyl)-benzo[b]thiophene-3-sulfonamide]	2.2 µM	0.19 µM		
Cc1ccc(-c2ccc(S(=O)(=O)Nc3noc(C)c3Br)s2)cc1 [N-(4-bromo-5-methyl-3-isoxazolyl)-5-(4-methylphenyl)thiophene-2-sulfonamide]	0.25 µM	15.8 µM	7.1 µM	0.359 µM
Cc1noc(NS(=O)(=O)c2ccsc2C(=O)OCCc2ccc3c(c2)OCO3)c1Cl [N-(4-chloro-3-methy-5-isoxazolyl)-2-[2-(3,4-methylenedioxyphenyl)]ethoxycarbonyl-3-sulfonamide]	6.2 µM	0.23 µM		
Cc1cc(C)c(CC(=O)c2sccc2S(=O)(=O)Nc2onc(C)c2Cl)c(C)c1 [N-(4-chloro-3-methyl-5-isoxazolyl)-2-(2,4,6-trimethylphenylacetyl)thiophene-3-sulfonamide]	3.82 µM	0.000238 µM		
Cc1cc(C)c(NC(=O)c2sccc2S(=O)(=O)Nc2onc(C)c2Cl)c(C)c1 [N-(4-chloro-3-methyl-5-isoxazolyl)-2-(2,4,6-trimethylphenylaminocarbonyl)thiophene-3-sulfonamide]	11.3 µM	0.0016 µM		
Cc1ccc(C)c(CC(=O)c2sccc2S(=O)(=O)Nc2onc(C)c2Cl)c1 [N-(4-chloro-3-methyl-5-isoxazolyl)-2-(2,5-dimethylphenylacetyl)thiophene-3-sulfonamide]	18 µM	0.007 µM		
COc1cc(NC(=O)c2sccc2S(=O)(=O)Nc2onc(C)c2Cl)c(C(N)=O)cc1OC [N-(4-chloro-3-methyl-5-isoxazolyl)-2-(2-carboxamido-4,5-dimethoxyphenylaminocarbonyl)thiophene-3-sulfonamide]	61 µM	0.011 µM		
Cc1cc(C)c(NC(=O)c2sccc2S(=O)(=O)Nc2onc(C)c2Cl)c(-c2ccccc2)c1 [N-(4-chloro-3-methyl-5-isoxazolyl)-2-(2-phenyl-4,6-dimethylphenylaminocarbonyl)thiophene-3-sulfonamide]	29.5 µM	0.0159 µM		
Cc1cc(C)cc(CC(=O)c2sccc2S(=O)(=O)Nc2onc(C)c2Cl)c1 [N-(4-chloro-3-methyl-5-isoxazolyl)-2-(3,5-dimethylphenylacetyl)thiophene-3-sulfonamide]	17.7 µM	0.045 µM		
Cc1cc(C)c(C(=O)O)c(C)c1NC(=O)c1sccc1S(=O)(=O)Nc1onc(C)c1Cl [N-(4-chloro-3-methyl-5-isoxazolyl)-2-(3-carboxyl-2,4,6-trimethylphenylaminocarbonyl)thiophene-3-sulfonamide]	22.4 µM	0.0119 µM		
COC(=O)c1c(C)cc(C)c(NC(=O)c2sccc2S(=O)(=O)Nc2onc(C)c2Cl)c1C [N-(4-chloro-3-methyl-5-isoxazolyl)-2-(3-methoxycarbonyl-2,4,6-trimethylphenylaminocarbonyl)thiophene-3-sulfonamide]	16.5 µM	0.000321 µM and 0.00092 µM		
